The subject of assay [1] is mutant strain containing both the K103N and Y181C mutations. In words: Spread assay, mutant strain containing both K103N and Y181C. Conditions: Human immunodeficiency virus 1; analogous spread assay, K103N and Y181C double mutant strain; read-out: CIC95. It is filed as cell-based, HIV. The method, then:
Assays for the inhibition of acute HIV-1 infection of T-lymphoid cells (alternatively referred to herein as the “spread assay”) were conducted in accordance with Vacca, J. P. et al., Proc. Natl. Acad. Sci. USA 1994, 91: 4096. The assays (using 10% FBS) tested for inhibition of wild type HIV-1 and of HIV strains containing the Y181C or K103N mutation. […] (Note that the compound of Example 6 was tested only up to a 833 nM concentration and the CIC95 value was determined to be >833 nM. The compound of Example 78 was not tested in the Y1818C assay.) The compounds of Examples 1 to 119 (including Examples 70A and 70B) had CIC95 values of less than 1000 nanomolar in the assay employing the K103N mutant strain. In an analogous assay employing a mutant strain containing both the K103N and Y181C mutations, the compounds of Examples 70A, 70B and 78-115 had CIC95 values of less than 1000 nanomolar.

The subject of assay [2] is HIV strain containing the Y181C mutation. Put plainly: Spread assay, Y181C mutant strain. It counts as cell-based. Conditions: Human immunodeficiency virus 1; spread assay, 10% FBS, Y181C mutant strain; read-out: CIC95. The procedure, abridged: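 Acute HIV-1 infection of T-lymphoid cells run in the presence of 10% FBS, […]; potency expressed as CIC95.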

On to `Cc1cc(C)cc(S(=O)(=O)c2c(C(N)=O)[nH]c(C(=O)N3CCCc4cc(O)ccc4C3)c2C)c1` [Example 88, 3-[(3,5-dimethylphenyl)sulfonyl]-4-methyl-5-(7-hydroxy-1,3,4,5-tetrahydro-2H-2-benzazepin-2-ylcarbonyl)-1H-pyrrole-2-carboxamide], for which the IC95 was less than 1 µM in assay [1] and less than 8 µM in assay [2].
Regarding `COc1ccc2c(c1)CN(C(=O)c1[nH]c(C(N)=O)c(S(=O)(=O)c3cc(C)cc(C)c3)c1C)CCC2` [Example 89, 3-[(3,5-dimethylphenyl)sulfonyl]-4-methyl-5-(8-methoxy-1,3,4,5-tetrahydro-2H-2-benzazepin-2-ylcarbonyl)-1H-pyrrole-2-carboxamide], the values for the IC95 in assay [1] and in assay [2] were less than 1 µM and less than 8 µM, respectively.
With `Cc1cc(C)cc(S(=O)(=O)c2c(C(N)=O)[nH]c(C(=O)N3CCCc4ccc(O)cc4C3)c2C)c1` [Example 90, 3-[(3,5-dimethylphenyl)sulfonyl]-4-methyl-5-(8-hydroxy-1,3,4,5-tetrahydro-2H-2-benzazepin-2-ylcarbonyl)-1H-pyrrole-2-carboxamide], the IC95 was less than 1 µM in assay [1] and less than 8 µM in assay [2].
`COc1ccc2c(c1)CN(C(=O)c1[nH]c(C(N)=O)c(S(=O)(=O)c3ccccc3)c1C)CCC2` [Example 91, 3-(phenylsulfonyl)-4-methyl-5-(8-methoxy-1,3,4,5-tetrahydro-2H-2-benzazepin-2-ylcarbonyl)-1H-pyrrole-2-carboxamide]: the IC95 was less than 1 µM in assay [1] and less than 8 µM in assay [2].
Regarding `Cc1c(C(=O)N2CCCc3ccc(O)cc3C2)[nH]c(C(N)=O)c1S(=O)(=O)c1ccccc1` [Example 92, 3-(phenylsulfonyl)-4-methyl-5-(8-hydroxy-1,3,4,5-tetrahydro-2H-2-benzazepin-2-ylcarbonyl)-1H-pyrrole-2-carboxamide], the IC95 in assay [1] was less than 1 µM; in assay [2], less than 8 µM.
For the compound `COc1ccc2c(c1)CN(C(=O)c1[nH]c(C(N)=O)c(S(=O)(=O)c3cccc(F)c3)c1C)CCC2` [Example 93, 3-[(3-fluorophenyl)sulfonyl]-4-methyl-5-(8-methoxy-1,3,4,5-tetrahydro-2H-2-benzazepin-2-ylcarbonyl)-1H-pyrrole-2-carboxamide], the figures for the IC95 in assay [1] and in assay [2] were less than 1 µM and less than 8 µM, respectively.
In the case of `Cc1c(C(=O)N2CCCc3ccc(O)cc3C2)[nH]c(C(N)=O)c1S(=O)(=O)c1cccc(F)c1` [Example 94, 3-[(3-fluorophenyl)sulfonyl]-4-methyl-5-(8-hydroxy-1,3,4,5-tetrahydro-2H-2-benzazepin-2-ylcarbonyl)-1H-pyrrole-2-carboxamide], the values for the IC95 in assay [1] and in assay [2] were less than 1 µM and less than 8 µM, respectively.
As for `COc1ccc2c(c1)CN(C(=O)c1[nH]c(C(N)=O)c(S(=O)(=O)c3cccc(C(F)(F)F)c3)c1C)CCC2` [Example 95, 3-[(3-(1,1,1-trifluoromethyl)phenyl)sulfonyl]-4-methyl-5-(8-methoxy-1,3,4,5-tetrahydro-2H-2-benzazepin-2-ylcarbonyl)-1H-pyrrole-2-carboxamide], the IC95 in assay [1] is less than 1 µM; in assay [2], less than 8 µM.
Turning to `Cc1c(C(=O)N2CCCc3sc(Cl)cc3C2)[nH]c(C(N)=O)c1S(=O)(=O)c1cc(Cl)cc(Cl)c1` [Example 96, 3-[(3,5-Dichlorophenyl)sulfonyl]-4-methyl-5-[(2-chloro-4,6,7,8-tetrahydro-5H-thieno[3,2-c]azepin-5-yl)carbonyl]-1H-pyrrole-2-carboxamide], the IC95 in assay [1] is less than 1 µM; in assay [2] it was less than 8 µM.
Turning to `Cc1c(C(=O)N2CCCc3sc(S(C)(=O)=O)cc3C2)[nH]c(C(N)=O)c1S(=O)(=O)c1cc(Cl)cc(Cl)c1` [Example 97], the IC95 in assay [1] was less than 1 µM; in assay [2], less than 8 µM.
As for `Cc1cc(C)cc(S(=O)(=O)c2c(C(N)=O)[nH]c(C(=O)N3CCCc4sc(S(C)(=O)=O)cc4C3)c2C)c1` [Example 98, 3-[(3,5-Dimethylphenyl)sulfonyl]-4-methyl-5-[(2-(methylsulfonyl)-4,6,7,8-tetrahydro-5H-thieno[3,2-c]azepin-5-yl)carbonyl]-1H-pyrrole-2-carboxamide], the IC95 in assay [1] was less than 1 µM; in assay [2], less than 8 µM.
For the compound `CC(C)c1c(C(=O)N(C)Cc2ccnc(N)c2)[nH]c(C(N)=O)c1S(=O)(=O)c1cccc(F)c1` [Example 99, N5-[(2-aminopyridin-4-yl)methyl]-3-[(3-fluorophenyl)sulfonyl]-4-isopropyl-N5-methyl-1H-pyrrole-2,5-dicarboxamide], the IC95 in assay [1] was less than 1 µM; in assay [2], less than 8 µM.
For `CC(C)c1c(C(=O)N(C)Cc2ccnc(N)c2)[nH]c(C(N)=O)c1S(=O)(=O)c1cc(F)cc(F)c1` [Example 100, N5-[(2-aminopyridin-4-yl)methyl]-3-[(3,5-difluorophenyl)sulfonyl]-4-isopropyl-N5-methyl-1H-pyrrole-2,5-dicarboxamide] the same measures were less than 1 µM and less than 8 µM.
Take `CC(C)c1c(C(=O)N(C)Cc2ccnc(N)c2)[nH]c(C(N)=O)c1S(=O)(=O)c1ccccc1` [Example 101]: the IC95 in assay [1] is less than 1 µM; in assay [2] it was less than 8 µM.
On the same counts, the results for `Cc1cc(C)cc(S(=O)(=O)c2c(C(N)=O)[nH]c(C(=O)N(C)Cc3ccnc(N)c3)c2C(C)C)c1` [Example 102, N5-[(2-aminopyridin-4-yl)methyl]-3-[(3,5-dimethylphenyl)sulfonyl]-4-isopropyl-N5-methyl-1H-pyrrole-2,5-dicarboxamide] are less than 1 µM and less than 8 µM.
Regarding `Cc1cc(C)cc(S(=O)(=O)c2c(C(N)=O)[nH]c(C(=O)N(C)Cc3cc(N)ncc3F)c2C)c1` [Example 103, N5-[(2-amino-5-fluoropyridin-4-yl)methyl]-3-[(3,5-dimethylphenyl)sulfonyl]-N5,4-dimethyl-1H-pyrrole-2,5-dicarboxamide], the IC95 in assay [1] is less than 1 µM; in assay [2] it was less than 8 µM.
With `CC(C)c1c(C(=O)N(C)Cc2cc(N)ncc2F)[nH]c(C(N)=O)c1S(=O)(=O)c1ccccc1` [Example 104], the IC95 in assay [1] was less than 1 µM; in assay [2] it was less than 8 µM.
As for `Cc1cc(C)cc(S(=O)(=O)c2c(C(N)=O)[nH]c(C(=O)N(C)Cc3ccncc3Cl)c2C)c1` [Example 105, N5-[(3-chloropyridin-4-yl)methyl]-3-[(3,5-dimethylphenyl)sulfonyl]-N5,4-dimethyl-1H-pyrrole-2,5-dicarboxamide], the IC95 in assay [1] was less than 1 µM; in assay [2], less than 8 µM.
As for `CC(C)c1c(C(=O)N(C)Cc2ccncc2Cl)[nH]c(C(N)=O)c1S(=O)(=O)c1ccccc1` [Example 106, N2-[(3-chloropyridin-4-yl)methyl]-3-isopropyl-N2-methyl-4-(phenylsulfonyl)-1H-pyrrole-2,5-dicarboxamide], the values for the IC95 in assay [1] and in assay [2] were less than 1 µM and less than 8 µM, respectively.
Take `Cc1cc(C)cc(S(=O)(=O)c2c(C(N)=O)[nH]c(C(=O)N(C)Cc3ccnc(Cl)c3F)c2C)c1` [Example 107, N5-[(2-chloro-3-fluoropyridin-4-yl)methyl]-3-[(3,5-dimethylphenyl)sulfonyl]-N5,4-dimethyl-1H-pyrrole-2,5-dicarboxamide]: the IC95 was less than 1 µM in assay [1] and less than 8 µM in assay [2].

The values above are taken from patent publication US20100113421A1, “NON-NUCLEOSIDE REVERSE TRANSCRIPTASE INHIBITORS” (priority 2006, published 2010).
